Measured values from ChEMBL document CHEMBL6109048, “Innovative design and potential applications of covalent strategy in drug discovery” (Eur J Med Chem, 2025).

Tests used:
[1] = biological target: Cyclin-dependent kinase 3 (Homo sapiens, UniProt Q00526); test: Inhibition of recombinant CDK3 (unknown origin)
Cathepsin G = biological target: T1, Cathepsin G (Homo sapiens, UniProt P08311); test: Inhibition of human Cathepsin G
T1 sequence (P08311 whole entry): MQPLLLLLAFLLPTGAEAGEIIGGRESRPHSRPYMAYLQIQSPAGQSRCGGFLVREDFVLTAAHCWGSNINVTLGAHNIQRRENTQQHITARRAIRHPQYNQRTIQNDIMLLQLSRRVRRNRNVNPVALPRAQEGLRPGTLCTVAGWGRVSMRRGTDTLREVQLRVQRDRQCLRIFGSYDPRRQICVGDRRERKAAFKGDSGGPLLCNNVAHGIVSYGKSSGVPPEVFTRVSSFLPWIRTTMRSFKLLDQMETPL

[2] = biological target: T2, Tyrosine-protein kinase JAK3 (Homo sapiens, UniProt P52333); test: Inhibition of JAK3 (unknown origin)
T2 sequence (P52333 whole entry): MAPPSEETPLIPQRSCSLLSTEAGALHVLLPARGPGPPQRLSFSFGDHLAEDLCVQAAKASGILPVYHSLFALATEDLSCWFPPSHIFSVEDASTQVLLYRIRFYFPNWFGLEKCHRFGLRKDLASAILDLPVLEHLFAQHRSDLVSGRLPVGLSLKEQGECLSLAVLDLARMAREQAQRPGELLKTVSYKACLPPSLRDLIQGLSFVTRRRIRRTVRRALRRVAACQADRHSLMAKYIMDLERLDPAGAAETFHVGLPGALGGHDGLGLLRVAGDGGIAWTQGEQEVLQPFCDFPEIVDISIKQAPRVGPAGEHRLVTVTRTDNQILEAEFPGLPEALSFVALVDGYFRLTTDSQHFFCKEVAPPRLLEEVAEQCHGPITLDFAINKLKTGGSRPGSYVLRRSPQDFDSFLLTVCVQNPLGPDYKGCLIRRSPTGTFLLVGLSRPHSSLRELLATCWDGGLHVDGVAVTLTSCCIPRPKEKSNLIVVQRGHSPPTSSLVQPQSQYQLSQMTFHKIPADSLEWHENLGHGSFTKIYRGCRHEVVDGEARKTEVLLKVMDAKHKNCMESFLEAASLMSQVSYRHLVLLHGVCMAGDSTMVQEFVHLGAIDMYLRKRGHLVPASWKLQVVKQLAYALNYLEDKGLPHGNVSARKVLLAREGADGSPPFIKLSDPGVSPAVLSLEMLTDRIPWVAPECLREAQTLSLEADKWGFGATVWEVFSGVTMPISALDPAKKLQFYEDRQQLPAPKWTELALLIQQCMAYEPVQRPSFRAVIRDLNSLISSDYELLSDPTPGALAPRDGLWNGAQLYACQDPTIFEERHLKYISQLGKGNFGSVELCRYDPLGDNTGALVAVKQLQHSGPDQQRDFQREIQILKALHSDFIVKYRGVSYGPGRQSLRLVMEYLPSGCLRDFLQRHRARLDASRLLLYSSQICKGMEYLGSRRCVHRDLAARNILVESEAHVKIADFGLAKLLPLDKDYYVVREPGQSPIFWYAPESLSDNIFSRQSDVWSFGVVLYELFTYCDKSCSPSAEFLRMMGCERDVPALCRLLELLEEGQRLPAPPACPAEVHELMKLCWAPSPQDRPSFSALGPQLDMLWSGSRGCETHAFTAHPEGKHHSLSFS

[3] = biological target: Epidermal growth factor receptor (Homo sapiens, UniProt P00533); test: Inhibition of EGFR (unknown origin) by ADP-Glo kinase assay
Chain of Epidermal growth factor receptor (P00533 whole entry, the tested form may be a part): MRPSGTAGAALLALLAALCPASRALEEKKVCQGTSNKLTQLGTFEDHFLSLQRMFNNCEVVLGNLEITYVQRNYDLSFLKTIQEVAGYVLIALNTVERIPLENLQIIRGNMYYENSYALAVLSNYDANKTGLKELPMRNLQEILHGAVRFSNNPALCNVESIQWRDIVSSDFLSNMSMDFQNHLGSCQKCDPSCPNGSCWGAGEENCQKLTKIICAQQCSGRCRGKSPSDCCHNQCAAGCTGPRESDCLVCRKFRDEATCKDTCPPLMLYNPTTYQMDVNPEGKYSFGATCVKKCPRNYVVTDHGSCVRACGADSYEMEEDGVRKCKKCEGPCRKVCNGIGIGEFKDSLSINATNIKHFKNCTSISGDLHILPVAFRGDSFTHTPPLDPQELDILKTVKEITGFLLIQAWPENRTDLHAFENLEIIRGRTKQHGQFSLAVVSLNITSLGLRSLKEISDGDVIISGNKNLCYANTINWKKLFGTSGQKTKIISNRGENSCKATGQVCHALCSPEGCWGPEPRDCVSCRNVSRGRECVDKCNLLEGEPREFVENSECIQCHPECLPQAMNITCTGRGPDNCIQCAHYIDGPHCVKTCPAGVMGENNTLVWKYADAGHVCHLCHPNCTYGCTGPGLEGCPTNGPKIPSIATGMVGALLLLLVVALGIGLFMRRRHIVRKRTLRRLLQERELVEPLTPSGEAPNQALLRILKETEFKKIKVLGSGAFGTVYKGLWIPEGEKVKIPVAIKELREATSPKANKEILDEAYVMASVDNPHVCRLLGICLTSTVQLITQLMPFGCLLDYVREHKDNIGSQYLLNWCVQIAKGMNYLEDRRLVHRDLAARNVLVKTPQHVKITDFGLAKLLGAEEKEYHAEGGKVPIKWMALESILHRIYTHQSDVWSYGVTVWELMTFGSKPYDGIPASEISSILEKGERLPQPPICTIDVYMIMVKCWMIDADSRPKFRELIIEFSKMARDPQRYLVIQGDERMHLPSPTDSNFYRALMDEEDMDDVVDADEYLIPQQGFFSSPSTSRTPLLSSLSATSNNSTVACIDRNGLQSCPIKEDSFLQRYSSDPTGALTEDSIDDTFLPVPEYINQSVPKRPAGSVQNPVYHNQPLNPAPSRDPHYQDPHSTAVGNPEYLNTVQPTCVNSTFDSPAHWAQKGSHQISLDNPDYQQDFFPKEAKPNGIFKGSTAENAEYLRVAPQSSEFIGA

[4] = biological target: Tyrosine-protein kinase ABL1 (Homo sapiens, UniProt P00519); test: Inhibition of 6His/SUMO- tagged human ABL1 (229 to 500 residues) extracted from Escherichia coli BL21 (DE3)
Chain of Tyrosine-protein kinase ABL1 (P00519 whole entry, the tested form may be a part): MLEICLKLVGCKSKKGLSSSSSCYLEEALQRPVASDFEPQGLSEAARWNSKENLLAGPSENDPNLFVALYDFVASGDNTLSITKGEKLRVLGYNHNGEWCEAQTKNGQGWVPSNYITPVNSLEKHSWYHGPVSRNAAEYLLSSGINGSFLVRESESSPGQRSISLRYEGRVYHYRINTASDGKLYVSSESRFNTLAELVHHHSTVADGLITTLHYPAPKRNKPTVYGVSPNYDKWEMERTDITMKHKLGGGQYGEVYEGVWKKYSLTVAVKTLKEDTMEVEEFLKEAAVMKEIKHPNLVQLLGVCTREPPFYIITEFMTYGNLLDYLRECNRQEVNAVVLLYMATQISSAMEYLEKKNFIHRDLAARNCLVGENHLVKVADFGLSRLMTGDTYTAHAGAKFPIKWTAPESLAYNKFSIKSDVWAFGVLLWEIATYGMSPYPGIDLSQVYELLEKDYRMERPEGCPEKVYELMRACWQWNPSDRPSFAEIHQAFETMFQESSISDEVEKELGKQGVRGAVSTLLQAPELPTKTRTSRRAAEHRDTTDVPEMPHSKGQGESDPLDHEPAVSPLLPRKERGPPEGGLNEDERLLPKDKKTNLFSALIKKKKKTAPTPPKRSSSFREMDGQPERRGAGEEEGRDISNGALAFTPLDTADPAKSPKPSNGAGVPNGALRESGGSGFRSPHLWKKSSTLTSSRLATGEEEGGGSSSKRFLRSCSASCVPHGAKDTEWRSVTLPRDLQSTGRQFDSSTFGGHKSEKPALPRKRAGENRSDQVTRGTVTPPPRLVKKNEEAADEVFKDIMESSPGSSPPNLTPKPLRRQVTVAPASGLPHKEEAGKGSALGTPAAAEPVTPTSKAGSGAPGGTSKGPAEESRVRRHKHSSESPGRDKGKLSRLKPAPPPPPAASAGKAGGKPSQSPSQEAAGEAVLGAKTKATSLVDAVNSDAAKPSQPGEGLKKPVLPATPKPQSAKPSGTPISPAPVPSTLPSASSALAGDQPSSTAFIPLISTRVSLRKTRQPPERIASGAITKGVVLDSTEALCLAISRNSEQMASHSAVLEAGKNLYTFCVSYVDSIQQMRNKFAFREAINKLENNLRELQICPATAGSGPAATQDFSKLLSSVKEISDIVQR

[5] = biological target: Mast/stem cell growth factor receptor Kit (Homo sapiens, UniProt P10721); test: Inhibition of c-KIT (unknown origin)
Chain of Mast/stem cell growth factor receptor Kit (P10721 whole entry): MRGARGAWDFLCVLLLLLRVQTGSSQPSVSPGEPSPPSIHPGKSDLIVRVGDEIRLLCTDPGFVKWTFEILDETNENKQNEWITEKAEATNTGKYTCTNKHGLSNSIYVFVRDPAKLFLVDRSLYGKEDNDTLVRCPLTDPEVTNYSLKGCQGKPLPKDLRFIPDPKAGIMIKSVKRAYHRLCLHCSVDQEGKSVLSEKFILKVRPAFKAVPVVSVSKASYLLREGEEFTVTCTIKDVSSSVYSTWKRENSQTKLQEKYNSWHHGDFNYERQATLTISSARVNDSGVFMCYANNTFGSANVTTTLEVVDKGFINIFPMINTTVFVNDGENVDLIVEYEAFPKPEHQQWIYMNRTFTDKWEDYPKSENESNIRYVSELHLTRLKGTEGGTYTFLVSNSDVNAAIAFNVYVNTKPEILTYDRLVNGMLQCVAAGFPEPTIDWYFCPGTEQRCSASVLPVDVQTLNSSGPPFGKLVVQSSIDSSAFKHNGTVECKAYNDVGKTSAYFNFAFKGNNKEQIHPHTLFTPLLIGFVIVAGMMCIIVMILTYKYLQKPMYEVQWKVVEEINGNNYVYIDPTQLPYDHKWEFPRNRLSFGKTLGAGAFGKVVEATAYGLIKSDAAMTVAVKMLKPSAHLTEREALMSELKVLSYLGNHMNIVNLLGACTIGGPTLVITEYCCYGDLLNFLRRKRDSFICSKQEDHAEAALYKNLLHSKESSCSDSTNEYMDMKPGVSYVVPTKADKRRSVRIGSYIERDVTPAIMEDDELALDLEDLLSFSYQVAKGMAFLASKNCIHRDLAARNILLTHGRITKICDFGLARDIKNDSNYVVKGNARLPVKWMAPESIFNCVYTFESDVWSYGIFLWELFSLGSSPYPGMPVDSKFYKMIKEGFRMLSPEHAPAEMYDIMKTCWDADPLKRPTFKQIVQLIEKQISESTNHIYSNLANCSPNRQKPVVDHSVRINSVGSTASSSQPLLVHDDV

SRSF protein kinase 1 = SRSF protein kinase 1 (Homo sapiens, UniProt Q96SB4); test: Inhibition of SRPK1 (unknown origin)
Chain of SRSF protein kinase 1 (Q96SB4 whole entry): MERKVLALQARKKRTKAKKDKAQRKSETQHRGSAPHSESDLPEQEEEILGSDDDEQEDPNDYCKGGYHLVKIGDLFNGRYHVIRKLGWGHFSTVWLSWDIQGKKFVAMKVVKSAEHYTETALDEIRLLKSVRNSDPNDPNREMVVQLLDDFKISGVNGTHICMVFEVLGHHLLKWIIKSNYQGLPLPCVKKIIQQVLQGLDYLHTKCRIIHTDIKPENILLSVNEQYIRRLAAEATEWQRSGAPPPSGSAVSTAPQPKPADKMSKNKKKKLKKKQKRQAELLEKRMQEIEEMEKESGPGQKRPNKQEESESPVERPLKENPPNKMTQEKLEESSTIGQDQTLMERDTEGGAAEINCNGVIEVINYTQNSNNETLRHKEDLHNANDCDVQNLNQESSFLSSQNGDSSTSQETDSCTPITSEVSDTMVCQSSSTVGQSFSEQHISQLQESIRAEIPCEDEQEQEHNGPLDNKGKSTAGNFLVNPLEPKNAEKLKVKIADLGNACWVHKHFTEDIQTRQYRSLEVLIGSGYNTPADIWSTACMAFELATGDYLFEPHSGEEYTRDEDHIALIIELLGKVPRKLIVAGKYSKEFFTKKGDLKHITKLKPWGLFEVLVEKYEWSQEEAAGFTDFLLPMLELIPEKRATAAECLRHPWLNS

Neutrophil elastase = biological target: T3, Neutrophil elastase (Homo sapiens, UniProt P08246); test: Inhibition of human neutrophil elastase
T3 sequence (P08246 whole entry): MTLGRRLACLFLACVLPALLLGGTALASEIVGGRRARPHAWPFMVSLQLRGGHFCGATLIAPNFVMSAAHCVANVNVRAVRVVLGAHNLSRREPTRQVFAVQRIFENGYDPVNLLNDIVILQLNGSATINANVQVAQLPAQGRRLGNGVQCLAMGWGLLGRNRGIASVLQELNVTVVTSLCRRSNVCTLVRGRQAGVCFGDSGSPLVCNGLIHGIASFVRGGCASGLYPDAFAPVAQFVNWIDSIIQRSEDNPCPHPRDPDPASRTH

Chain of Cyclin-dependent kinase 3 (Q00526 whole entry): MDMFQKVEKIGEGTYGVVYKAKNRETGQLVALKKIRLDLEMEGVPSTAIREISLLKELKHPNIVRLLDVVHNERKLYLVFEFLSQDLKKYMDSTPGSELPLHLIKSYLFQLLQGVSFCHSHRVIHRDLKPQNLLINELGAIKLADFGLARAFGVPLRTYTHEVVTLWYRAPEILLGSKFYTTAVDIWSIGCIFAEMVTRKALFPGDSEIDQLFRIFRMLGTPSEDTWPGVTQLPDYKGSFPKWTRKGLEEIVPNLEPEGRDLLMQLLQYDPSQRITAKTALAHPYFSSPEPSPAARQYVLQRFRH

CN(C)C/C=C/C(=O)Nc1ccc(C(=O)N2CCCC(Nc3ncc(Cl)c(-c4c[nH]c5ccccc45)n3)C2)cc1 (centres undefined)
IC50 [1]: 69 nM

O=S(=O)(F)Oc1ccccc1S(=O)(=O)F
IC50 (Cathepsin G): > 200 nM

CC#CC1Nc2cc(Nc3nccc(C4CN(C)c5ccccc54)n3)ccc2C(C)(C)O1 (centres undefined)
IC50 [2]: 60 nM

C#Cc1cc(Nc2ncnc3cc(OCCOC)c(OCCOC)cc23)ccc1C=O
IC50 [3]: 48.2 nM

C#Cc1cc(OC)c(-c2ccc3nc(NC(=O)NCCO)sc3c2)cc1C=O
IC50 [4]: 2.4 nM

CC#CC1=Nc2cc(NC(=O)Cc3ncc(Oc4ccnc5cc(OC)ccc45)cc3OC)ccc2C(C)(C)O1
IC50 [5]: 2080 nM

CCc1cc2c(cc1-c1cc[nH]n1)C(C)(C)C1Cc3cc(C#N)ccc3C1C2=O (centres undefined)
IC50 (SRSF protein kinase 1): 1.15 nM

O=S(=O)(F)c1ccccc1S(=O)(=O)F
IC50 (Neutrophil elastase): 3.3 µM | IC50 (Cathepsin G): 190 nM
